In patent US8796231B2, “Pest control composition” (Sumitomo Chemical Company, Limited, priority 2010, dated 2014) one finds Insecticidal rate data, which are given here for two compounds.

In assay [1] the test system is Panonychus citri. Briefly: Test Example 2: Satsuma mandarin orange leaf piece immersion test, insecticidal rate on female imagoes. It is filed as in vivo. Conditions: mandarin orange leaf piece immersed 60 seconds, after 6 days, 3 replicates. The procedure:
A suspension concentrate containing 10.0% by weight of etoxazole [product name: Baroque (registered trademark) flowable, manufactured by Kyoyu Agri Co., Ltd.] was diluted with water containing 0.02% by volume of a spreading agent [product name: Sindain (registered trademark), manufactured by Sumitomo Chemical Co., Ltd.] so that the concentration of etoxazole became 1.56 ppm.
A suspension concentrate containing 11.7% by weight of spinetoram (weight ratio of spinetoram J:spinetoram L=75:25) was diluted with water containing 0.02% by volume of a spreading agent [product name: Sindain (registered trademark), manufactured by Sumitomo Chemical Co., Ltd.] so that the concentration of spinetoram became 6.25 ppm.
(§1) The water dilution of spinetoram was mixed with an equal amount of the water dilution of etoxazole to prepare a test solution.
The water dilution of etoxazole and the water dilution of spinetoram were respectively diluted with an equal amount of water containing 0.02% by volume of the same spreading agent as mentioned above to prepare a 0.78 ppm water dilution of etoxazole and a 3.13 ppm water dilution of spinetoram.
Leaves were taken from a cultivated Satsuma mandarin orange tree, and cut into 2-cm-square pieces. One of the pieces was immersed in the test solution for 60 seconds. […]
An insecticidal rate was calculated in the same manner as Test Example 1. […]

In assay [2] the test system is Spodoptera litura. Briefly: Test Example 1: cabbage leaf immersion test, insecticidal rate on third-instar larvae. Conditions: cabbage leaf immersed 60 seconds, after 4 days, 3 replicates. It is filed as in vivo. Here is the method:
A suspension concentrate containing 10.0% by weight of etoxazole [product name: Baroque (registered trademark) flowable, manufactured by Kyoyu Agri Co., Ltd.] was diluted with water containing 0.02% by volume of a spreading agent [product name: Sindain (registered trademark), manufactured by Sumitomo Chemical Co., Ltd.] so that the concentration of etoxazole became 25 ppm.
A suspension concentrate containing 11.7% by weight of spinetoram (weight ratio of spinetoram J:spinetoram L=75:25) was diluted with water containing 0.02% by volume of a spreading agent [product name: Sindain (registered trademark), manufactured by Sumitomo Chemical Co., Ltd.] so that the concentration of spinetoram became 7.31 ppm.
as §1
The water dilution of etoxazole and the water dilution of spinetoram were respectively diluted with an equal amount of water containing 0.02% by volume of the same spreading agent as mentioned above to prepare a 12.5 ppm water dilution of etoxazole and a 3.66 ppm water dilution of spinetoram.
A cabbage was planted in a pot (volume: 860 ml) and grown until the fourth leaf stage. The leaves of the cabbage were cut off one by one. […]
An insect death rate was calculated according to the following equation. […]

As to `CCOc1cc(C(C)(C)C)ccc1C1COC(c2c(F)cccc2F)=N1` (stereo not shown) [Etoxazole, 2-(2,6-difluorophenyl)-4-[4-(1,1-dimethylethyl)-2-ethoxyphenyl]-4,5-dihydrooxazole], the Insecticidal rate in assay [1] (0.78 ppm active ingredient) worked out at 7.7%; in assay [2] (12.5 ppm active ingredient), 26.7%.
Regarding spinetoram, the Insecticidal rate in assay [1] (3.13 ppm active ingredient) stood at 23.1%; in assay [2] (3.66 ppm active ingredient), 43.3%.
